The text below walks through data of ChEMBL document CHEMBL4828724 (Eur J Med Chem, 2021).

Each structure is given as a SMILES string.

Data set [1] in a line: Metabolic stability in human liver microsomes assessed as intrinsic clearance at 1 uM in the presence of NADPH measured for 60 mins by LC-MS/MS analysis. The format is ADME, Microsome. Conditions: read-out: CLH. On the technique in general: Liver microsomes are vesicles of endoplasmic reticulum, rich in cytochrome P450 enzymes.
The target in a further data set is Cytochrome P450 2D6 (Homo sapiens, UniProt P10635). The data set can be described thus: Inhibition of CYP2D6 (unknown origin). The format is ADME.
Data set [2] addresses Synaptic vesicular amine transporter (Rattus norvegicus) (UniProt Q01827). The data set can be described thus: Inhibition of [3H]DA uptake at VMAT2 in rat striatal synaptosome at 1 uM incubated for 10 mins followed by [3H]DA addition and measured after 20 mins by TopCount scintillation counting method relative to control. The format is subcellular. The settings on record: Striatum, time 30.0 min.

For the next data set, the target named is Cytochrome P450 2C9 (Homo sapiens, UniProt P11712). The data set can be described thus: Inhibition of CYP2C9 (unknown origin). The class given is ADME.
Data set [3] in a line: Metabolic stability in monkey liver microsomes assessed as intrinsic clearance at 1 uM in the presence of NADPH measured for 60 mins by LC-MS/MS analysis. Conditions: rhesus monkey, read-out: CLH. The class given is ADME, Macaca mulatta, Microsome.
For the next data set, the target named is T1, Cytochrome P450 2B6 (Homo sapiens, UniProt P20813).
T1 sequence (P20813 whole entry): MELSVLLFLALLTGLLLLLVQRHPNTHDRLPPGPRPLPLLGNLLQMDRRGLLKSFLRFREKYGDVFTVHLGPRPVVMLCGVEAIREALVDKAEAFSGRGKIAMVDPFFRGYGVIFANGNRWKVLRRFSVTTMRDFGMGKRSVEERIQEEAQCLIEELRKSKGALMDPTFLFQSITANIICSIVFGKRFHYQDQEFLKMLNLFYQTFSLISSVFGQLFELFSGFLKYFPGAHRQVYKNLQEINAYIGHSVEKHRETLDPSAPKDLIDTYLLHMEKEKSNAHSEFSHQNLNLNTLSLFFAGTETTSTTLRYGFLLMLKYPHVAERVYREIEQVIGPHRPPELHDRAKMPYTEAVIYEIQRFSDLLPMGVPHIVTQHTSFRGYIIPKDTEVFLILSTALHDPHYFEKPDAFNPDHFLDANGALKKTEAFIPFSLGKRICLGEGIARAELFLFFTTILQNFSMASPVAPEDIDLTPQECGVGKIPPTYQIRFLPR
As to the kind of experiment: Inhibition of CYP2B6 (unknown origin). The class given is ADME.

The nature of data set [4]: Cmax in Sprague-Dawley rat at 10 umol/kg, ig administered as single dose measured for 12 hrs by LC-MS/MS analysis. The format is ADME. On the set-up: route […], time 12 hrs, dose 10 µmol/kg. The settings on record: in vivo, po.
The nature of data set [5]: Clearance in Sprague-Dawley rat at 10 umol/kg, ig administered as single dose measured for 12 hrs by LC-MS/MS analysis. The class given is ADME. Conditions: in vivo, po, dose 10 µmol/kg.
Data set [6] is described as follows: Apparent volume of distribution during terminal phase in Sprague-Dawley rat at 10 umol/kg, ig administered as single dose measured after 12 hrs by LC-MS/MS analysis. The format is ADME. Conditions: in vivo, po, dose 10 µmol/kg, read-out: Vz/F.
The nature of data set [7]: Drug uptake in Sprague-Dawley rat brain at 5 umol/kg, ig measured after 2 hrs by LC-MS/MS analysis. The format is ADME, tissue-based. Conditions: in vivo, po, dose 5 µmol/kg.
A short description of data set [8]: Tmax in Sprague-Dawley rat at 10 umol/kg, ig administered as single dose measured for 12 hrs by LC-MS/MS analysis. The format is ADME. The settings on record: in vivo, po, dose 10 µmol/kg.
In a further data set the target is Cytochrome P450 3A4 (Homo sapiens, UniProt P08684). As to the kind of experiment: Inhibition of CYP3A4 (unknown origin). The class given is ADME.
Data set [9] deals with Synaptic vesicular amine transporter (Rattus norvegicus) (UniProt Q01827). As to the kind of experiment: Inhibition of [3H]DA uptake at VMAT2 in rat striatal synaptosome at 0.1 uM incubated for 10 mins followed by [3H]DA addition and measured after 20 mins by TopCount scintillation counting method relative to control. The class given is subcellular. Conditions: Striatum, time 30.0 min.

A short description of data set [10]: Ratio of drug level in Sprague-Dawley rat brain to blood at 5 umol/kg, ig measured after 6 hrs by LC-MS/MS analysis. The class given is ADME, tissue-based. The settings on record: po, dose 5 µmol/kg.
The nature of data set [11]: Metabolic stability in mouse liver microsomes assessed as intrinsic clearance at 1 uM in the presence of NADPH measured for 60 mins by LC-MS/MS analysis. The class given is ADME, Microsome. Conditions: read-out: CLH.
Data set [12] is described as follows: Metabolic stability in mouse liver microsomes assessed as parent compound remaining at 1 uM in the presence of NADPH measured after 60 mins by LC-MS/MS analysis. The format is ADME, Microsome. The settings on record: liver microsomes, read-out: Stability.
In data set [13] the target is Voltage-gated inwardly rectifying potassium channel KCNH2 (Homo sapiens, UniProt Q12809). The data set can be described thus: Inhibition of human ERG.
Data set [14] is described as follows: Metabolic stability in monkey liver microsomes assessed as parent compound remaining at 1 uM in the presence of NADPH measured after 60 mins by LC-MS/MS analysis. The class given is ADME, Macaca mulatta, Microsome. Conditions: rhesus monkey, liver microsomes, read-out: Stability.
The nature of data set [15]: Metabolic stability in human liver microsomes assessed as parent compound remaining at 1 uM in the presence of NADPH measured after 60 mins by LC-MS/MS analysis. The class given is ADME, Microsome. Conditions: read-out: Stability.
Data set [16] has as its system Rattus norvegicus. The data set can be described thus: Reduction in spontaneous locomotor activity in Sprague-Dawley rat at 15 umol/kg, po measured for 3 hrs. The format is functional.
Data set [17] in a line: Half life in Sprague-Dawley rat at 10 umol/kg, ig administered as single dose measured for 12 hrs by LC-MS/MS analysis. The class given is ADME. Conditions: in vivo, po, dose 10 µmol/kg.
The target in the next data set is Cytochrome P450 2C19 (Homo sapiens, UniProt P33261). The data set can be described thus: Inhibition of CYP2C19 (unknown origin). The format is ADME.
The test system of data set [18] is Rattus norvegicus. As to the kind of experiment: Reduction in spontaneous locomotor activity in Sprague-Dawley rat at 3 umol/kg, po measured for 3 hrs. The format is functional.
A short description of data set [19]: AUC (0 to infinity) in Sprague-Dawley rat at 10 umol/kg, ig administered as single dose by LC-MS/MS analysis. The format is ADME. Set-up: time infinity, route […], dose 10 µmol/kg. Conditions: in vivo, po.

Synaptic vesicular amine transporter (Rattus norvegicus), sequence (Q01827 whole entry): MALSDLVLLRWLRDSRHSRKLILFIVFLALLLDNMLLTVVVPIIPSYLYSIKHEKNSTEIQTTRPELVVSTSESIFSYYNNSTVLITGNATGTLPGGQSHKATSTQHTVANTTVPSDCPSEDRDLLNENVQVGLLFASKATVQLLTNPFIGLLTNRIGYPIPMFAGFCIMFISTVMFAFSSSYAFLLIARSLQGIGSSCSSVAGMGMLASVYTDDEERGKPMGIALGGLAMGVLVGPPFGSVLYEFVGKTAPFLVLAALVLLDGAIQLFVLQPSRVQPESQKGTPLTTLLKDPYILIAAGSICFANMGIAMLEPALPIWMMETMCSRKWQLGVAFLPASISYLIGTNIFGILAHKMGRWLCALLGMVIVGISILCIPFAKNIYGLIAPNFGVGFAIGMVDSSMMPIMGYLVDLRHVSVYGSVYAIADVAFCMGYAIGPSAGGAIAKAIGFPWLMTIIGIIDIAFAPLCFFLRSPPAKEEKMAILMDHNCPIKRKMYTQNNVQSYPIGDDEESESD
Cytochrome P450 2D6, sequence (P10635 whole entry): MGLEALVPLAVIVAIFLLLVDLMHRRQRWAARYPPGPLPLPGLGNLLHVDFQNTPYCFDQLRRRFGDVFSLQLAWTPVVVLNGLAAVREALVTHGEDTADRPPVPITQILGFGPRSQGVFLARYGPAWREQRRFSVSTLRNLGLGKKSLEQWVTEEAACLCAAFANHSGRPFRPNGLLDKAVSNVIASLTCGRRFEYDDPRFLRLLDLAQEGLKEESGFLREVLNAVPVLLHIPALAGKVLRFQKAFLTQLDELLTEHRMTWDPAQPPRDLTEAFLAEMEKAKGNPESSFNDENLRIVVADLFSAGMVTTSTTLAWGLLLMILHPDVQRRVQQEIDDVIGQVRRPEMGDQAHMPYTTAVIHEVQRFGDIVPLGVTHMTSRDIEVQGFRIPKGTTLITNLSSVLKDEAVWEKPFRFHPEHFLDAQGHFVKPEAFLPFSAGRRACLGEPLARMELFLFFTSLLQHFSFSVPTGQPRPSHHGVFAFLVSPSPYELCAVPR
Cytochrome P450 2C19, sequence (P33261 whole entry): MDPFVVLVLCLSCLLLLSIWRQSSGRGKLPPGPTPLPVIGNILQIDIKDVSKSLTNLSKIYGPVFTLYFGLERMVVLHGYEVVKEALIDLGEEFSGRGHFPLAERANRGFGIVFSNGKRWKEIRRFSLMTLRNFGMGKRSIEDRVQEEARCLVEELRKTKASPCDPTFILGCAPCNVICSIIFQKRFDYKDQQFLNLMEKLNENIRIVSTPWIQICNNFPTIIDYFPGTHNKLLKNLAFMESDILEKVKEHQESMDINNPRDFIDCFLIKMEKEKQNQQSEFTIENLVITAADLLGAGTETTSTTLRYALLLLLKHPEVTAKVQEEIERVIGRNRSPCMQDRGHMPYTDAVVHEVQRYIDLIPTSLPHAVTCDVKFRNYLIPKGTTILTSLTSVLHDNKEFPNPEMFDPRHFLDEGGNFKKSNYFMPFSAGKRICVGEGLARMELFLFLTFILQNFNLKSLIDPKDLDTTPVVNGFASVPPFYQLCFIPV
Cytochrome P450 3A4, sequence (P08684 whole entry): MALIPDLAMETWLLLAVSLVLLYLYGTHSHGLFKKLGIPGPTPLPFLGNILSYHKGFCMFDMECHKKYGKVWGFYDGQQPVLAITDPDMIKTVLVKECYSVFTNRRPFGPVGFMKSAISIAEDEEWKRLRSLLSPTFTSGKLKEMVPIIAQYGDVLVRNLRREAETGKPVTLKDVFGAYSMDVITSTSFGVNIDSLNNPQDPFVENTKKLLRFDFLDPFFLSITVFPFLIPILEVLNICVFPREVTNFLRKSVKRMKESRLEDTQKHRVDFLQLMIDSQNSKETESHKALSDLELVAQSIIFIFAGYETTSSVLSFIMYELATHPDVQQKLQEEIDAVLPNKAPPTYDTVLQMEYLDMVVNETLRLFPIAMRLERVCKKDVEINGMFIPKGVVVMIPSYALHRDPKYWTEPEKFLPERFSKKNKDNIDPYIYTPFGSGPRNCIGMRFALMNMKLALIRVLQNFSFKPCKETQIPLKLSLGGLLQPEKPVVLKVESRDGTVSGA
Cytochrome P450 2C9, sequence (P11712 whole entry): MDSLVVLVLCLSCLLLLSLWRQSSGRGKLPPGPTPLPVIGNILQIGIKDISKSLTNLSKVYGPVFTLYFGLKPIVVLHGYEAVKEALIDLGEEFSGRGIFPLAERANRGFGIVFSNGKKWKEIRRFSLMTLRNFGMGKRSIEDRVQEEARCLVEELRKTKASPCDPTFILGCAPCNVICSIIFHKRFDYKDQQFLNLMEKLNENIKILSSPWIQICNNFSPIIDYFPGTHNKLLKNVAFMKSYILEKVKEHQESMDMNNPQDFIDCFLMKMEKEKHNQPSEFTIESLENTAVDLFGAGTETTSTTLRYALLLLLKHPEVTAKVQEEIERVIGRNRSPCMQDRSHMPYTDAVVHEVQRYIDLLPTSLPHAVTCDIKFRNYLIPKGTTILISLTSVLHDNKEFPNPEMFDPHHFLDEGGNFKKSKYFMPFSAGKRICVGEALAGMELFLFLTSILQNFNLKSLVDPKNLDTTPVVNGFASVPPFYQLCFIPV
Voltage-gated inwardly rectifying potassium channel KCNH2, sequence (Q12809 whole entry): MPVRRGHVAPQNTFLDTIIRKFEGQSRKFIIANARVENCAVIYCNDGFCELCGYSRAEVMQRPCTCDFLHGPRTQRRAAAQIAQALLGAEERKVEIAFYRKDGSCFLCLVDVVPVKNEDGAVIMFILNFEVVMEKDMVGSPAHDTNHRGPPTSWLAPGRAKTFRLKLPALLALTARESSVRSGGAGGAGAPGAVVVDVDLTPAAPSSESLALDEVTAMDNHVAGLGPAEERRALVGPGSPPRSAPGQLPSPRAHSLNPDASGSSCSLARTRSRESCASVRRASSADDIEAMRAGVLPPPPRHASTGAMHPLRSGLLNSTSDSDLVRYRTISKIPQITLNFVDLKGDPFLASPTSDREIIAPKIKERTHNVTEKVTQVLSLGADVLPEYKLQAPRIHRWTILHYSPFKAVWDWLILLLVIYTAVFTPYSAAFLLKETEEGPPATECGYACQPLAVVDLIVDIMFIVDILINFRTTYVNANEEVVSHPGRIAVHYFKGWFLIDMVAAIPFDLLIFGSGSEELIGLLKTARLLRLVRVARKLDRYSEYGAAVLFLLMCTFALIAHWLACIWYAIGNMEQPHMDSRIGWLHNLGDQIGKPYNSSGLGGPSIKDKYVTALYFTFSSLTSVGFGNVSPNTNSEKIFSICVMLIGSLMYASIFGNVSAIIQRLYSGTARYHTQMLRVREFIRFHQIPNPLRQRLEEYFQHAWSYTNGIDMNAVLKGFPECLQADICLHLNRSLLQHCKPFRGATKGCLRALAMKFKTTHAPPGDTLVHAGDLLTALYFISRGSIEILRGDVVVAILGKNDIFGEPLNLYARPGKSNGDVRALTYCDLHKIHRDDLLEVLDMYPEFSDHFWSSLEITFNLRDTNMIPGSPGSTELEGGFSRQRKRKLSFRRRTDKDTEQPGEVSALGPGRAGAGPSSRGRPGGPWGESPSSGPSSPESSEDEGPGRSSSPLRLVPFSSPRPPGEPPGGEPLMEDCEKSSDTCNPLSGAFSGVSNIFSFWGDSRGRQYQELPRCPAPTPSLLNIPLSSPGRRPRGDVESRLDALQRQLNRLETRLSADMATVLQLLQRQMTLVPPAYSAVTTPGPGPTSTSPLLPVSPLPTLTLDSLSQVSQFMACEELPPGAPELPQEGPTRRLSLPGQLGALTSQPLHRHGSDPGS

As to `COc1cc2c(cc1OCC(F)(F)F)CCN1CC(CC(C)C)C(O)CC21` (centres undefined), the CLint scaled at 1 µM in data set [1] was 8.6 mL/min/kg; in data set [3], 31.9 mL/min/kg; in [11], 238 mL/min/kg. Moreover, the IC50 (commonly the concentration needed to halve the response being measured) on Cytochrome P450 2D6 is over 100 µM; on Cytochrome P450 2C9, over 100 µM; at Cytochrome P450 2B6 it was over 100 µM; at Cytochrome P450 3A4, over 100 µM; in [13], 6.51 µM; at Cytochrome P450 2C19, over 100 µM. Besides, the inhibition in [2] and in data set [9] was 99.9% each time. Further, the concentration in [4] peaked (Cmax) at 1400 nM. Besides, the CL/F (in general, clearance divided by bioavailability, as obtained after extravascular dosing) in [5] is 53.3 mL/min/kg. For the same compound, in [6], the Vd/F stood at 10.8 L/kg. This compound also displayed a Drug uptake in [7] of 458.2 nmol/kg. The Tmax (as a rule, the time from dosing to the highest level) in data set [8] is 0.75 h. The Kp (in general, tissue or fluid exposure divided by exposure in the circulation) at 6 h in data set [10] is 2.21. The results for the remaining at 1 h, 1 µM in data set [12], in [14] and in [15] were 14.2%, 48.1% and 77.4%, respectively. Besides, the inhibition in vivo (usually the percentage by which the read-out fell short of the control) at 15 µmol/kg in the data set with Rattus norvegicus [16] came to 93.7%. Moreover, the half-life – broadly, how long it takes for the measured level to halve – in data set [17] was 2.29 h. Moreover, the inhibition in vivo at 3 µmol/kg in the data set on Rattus norvegicus [18] worked out at 64.7%. In [19], the AUC(0-inf) (commonly total exposure, with the tail of the curve extrapolated) turned out to be 3.47 µM·h.
